One substance from US9283289B2, “Self-quenching activatable COX-2-specific multi-modal molecular probes for diagnosis of cancers, inflammation, and immune system disorders” (The Board of Trustees of the Leland Stanford Junior …, priority 2012, dated 2016) can be followed below.

Data set [1] in a line: LC/MS-MS quantification in mouse blood after topical application. The data set is classed as in vivo.
Data set [2] deals with basal cell carcinoma (BCC), squamous cell carcinoma (SCC) and melanoma tumors. The experiment in a line: In vivo fluorescence imaging of skin tumors after systemic (retro-orbital) injection of the probe. More on the design: species or system mouse. The source says:
Imaging agents based on the well-characterized COX-2 inhibitors can be used for the early detection of skin cancer and help define tumor margins. […] A continuing problem is the detection of small tumors that are indistinguishable over non-specific background fluorescence.
FIGS. 1A and 1B illustrate in vivo detection of Fluorocoxib accumulation in Basal Cell Carcinoma Imaging with CRi Maestro. FIG. 1A: Histology and identification of tumor cell; FIG. 1B: from lesion 3 (arrows).
However, for skin or other epithelial applications, as well as to improve on its TBR on systemic administration, it is desirable to limit the non-specific signal. To overcome this undesirable background fluorescent signal that can mask signals from smaller tumors and other sites having low-level expression of COX-2, the present disclosure provides molecular probes wherein the fluorescent COX-2-specific construct comprises a fluorescent quencher linked to the probe by a cleavable linker. Upon entry into a cell and binding of the Fluorocoxib to COX-2, the quencher can be displaced from the vicinity of the fluorophore by, for example, a cytoplasmic peptidase cleavage of the cleavable linker, allowing the generation of a detectable fluorescent signal. […]
The capability of this probe to detect early stage skin tumors that cannot be detected by visual inspection was investigated. […]

5-Rox-D-indomethacin [Fluorocoxib A]: the “level in mouse blood” value in data set [1] was “undetectable”. The “size of small tumors visualized” value in data set [2] (genetically engineered mouse model of non-melanoma skin cancer, systemic administration, 1 mg/kg) is “approximately 100 μm”. In addition, in data set [2] (three hours after retro-orbital injection, in vivo imaging and tissue histology), the “fluorescence detection in tumor areas” value was “selectively detected”.
